Assay results taken from US10202387B2, “Heterocyclyl linked imidazopyridazine derivatives as PI3KB inhibitors” (Janssen Pharmaceutica NV, priority 2014, dated 2019).

Tests used:
[1] = biological target: T1, MTOR_h (Homo sapiens, UniProt P42345); assay: Enzyme binding assay (KINOMEscan); settings: DiscoveRx
T1 construct: purchased DiscoveRx Corporation, San Diego (KINOMEscan service)
Protocol: (§1) Enzyme Binding Assays (KINOMEscan®)
(§2) Kinase enzyme binding affinities of compounds disclosed herein were determined using the KINOMEscan technology performed by DiscoveRx Corporation, San Diego, Calif., USA (www.kinomescan.com). Table A reports the obtained Kd values (nM), with the Kd being the inhibitor binding constant: […]

[2] = biological target: T2, PIK3Cα_h (Homo sapiens, UniProt P42336); assay: Enzyme binding assay (KINOMEscan); settings: DiscoveRx
T2 construct: purchased DiscoveRx Corporation, San Diego (KINOMEscan service)
Protocol: as §1, §2

[3] = biological target: T3, PIK3Cβ_h (Homo sapiens, UniProt P42338); assay: Enzyme binding assay (KINOMEscan); settings: DiscoveRx
T3 construct: purchased DiscoveRx Corporation, San Diego (KINOMEscan service)
Protocol: as §1, §2

[4] = biological target: T4, PIK3Cγ_h (Homo sapiens, UniProt P48736); assay: Enzyme binding assay (KINOMEscan); settings: DiscoveRx
T4 construct: purchased DiscoveRx Corporation, San Diego (KINOMEscan service)
Protocol: as §1, §2

[5] = biological target: T5, PIK3Cδ_h (Homo sapiens, UniProt O00329); assay: Enzyme binding assay (KINOMEscan); settings: DiscoveRx
T5 construct: purchased DiscoveRx Corporation, San Diego (KINOMEscan service)
T5 sequence (O00329 1-1044): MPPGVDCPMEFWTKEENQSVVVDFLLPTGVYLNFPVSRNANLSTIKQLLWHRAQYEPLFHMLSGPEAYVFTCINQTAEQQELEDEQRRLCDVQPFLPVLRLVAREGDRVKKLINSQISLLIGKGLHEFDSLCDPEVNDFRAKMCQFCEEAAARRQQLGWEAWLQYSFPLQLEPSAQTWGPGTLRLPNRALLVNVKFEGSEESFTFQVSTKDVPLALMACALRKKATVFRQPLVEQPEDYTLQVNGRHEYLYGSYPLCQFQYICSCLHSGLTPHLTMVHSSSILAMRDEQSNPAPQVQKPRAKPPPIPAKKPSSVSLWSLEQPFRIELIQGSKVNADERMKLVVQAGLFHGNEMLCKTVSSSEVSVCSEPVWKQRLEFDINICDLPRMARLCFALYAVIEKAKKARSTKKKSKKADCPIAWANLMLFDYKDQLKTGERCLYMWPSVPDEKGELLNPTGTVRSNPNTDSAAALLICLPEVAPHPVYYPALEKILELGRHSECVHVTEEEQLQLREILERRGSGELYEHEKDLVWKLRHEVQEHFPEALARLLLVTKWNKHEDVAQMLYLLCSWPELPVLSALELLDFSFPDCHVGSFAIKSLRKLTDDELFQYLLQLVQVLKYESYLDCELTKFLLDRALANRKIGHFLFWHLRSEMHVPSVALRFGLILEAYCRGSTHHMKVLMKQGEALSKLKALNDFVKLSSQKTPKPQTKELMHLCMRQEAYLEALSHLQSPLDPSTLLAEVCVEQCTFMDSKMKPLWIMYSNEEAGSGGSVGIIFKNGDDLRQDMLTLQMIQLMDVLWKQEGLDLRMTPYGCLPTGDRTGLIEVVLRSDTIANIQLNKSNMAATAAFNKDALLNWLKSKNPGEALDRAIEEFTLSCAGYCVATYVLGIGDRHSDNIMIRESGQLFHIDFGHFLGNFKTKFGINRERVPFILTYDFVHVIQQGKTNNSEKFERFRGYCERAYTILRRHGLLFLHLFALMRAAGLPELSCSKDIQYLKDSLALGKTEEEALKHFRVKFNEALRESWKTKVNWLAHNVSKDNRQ
Protocol: as §1, §2

[6] = system: Akt phosphorylated at Ser473 in PC-3 cells; assay: Cellular assay: phosphorylation of Akt (Ser473) in PC-3 cells, MSD ELISA; format: cell-based; settings: Homo sapiens, 1 h, 60 min incubation with compound, read-out: IC50 pAkt_S473
Protocol: (§3) Cellular activity of PI3Kβ inhibitors was determined by quantifying the phosphorylation of Akt in PC-3 cells. Akt phosphorylated at Ser473 and Thr308 were measured using an enzyme-linked immunosorbent assay (ELISA; Meso Scale Discovery (MSD). Gaithersburg, Md.) and specific primary antibodies from MSD.
(§4) On day 1, PC3 cells (ATCC […]) were seeded into PerkinElmer MW96 plates at 25.000 cells per well, in 75 μl complete culture medium (DMEM (Dulbecco's Modified Eagle's Medium) high glucose. AQmedia™, D0819, Sigma-Aldrich) containing 10% heat inactivated FCS (Fetal Bovine Serum) and incubated at 37° C., 5% CO2 during 24 hours. On day 2, compound or DMSO (dimethyl sulfoxide) (0.3%) was added and cells were further incubated for 60 min at 37° C., 5% CO2 in a total volume of 100 μl of medium.
(§5) The phosphoprotein assay was executed according to vendor instructions in the Phospho-Akt (Ser473) Assay Whole Cell Lysate Kit (MSD #K15100D-3) and the Phospho-Akt (Thr308) Assay Whole Cell Lysate Kit (MSD #K151DYD-3) using the lysis, blocking and wash buffer provided.
(§6) Briefly, at the end of the cell treatment period, media were removed by aspiration and adherent cells were lysed in 50 μl ice-cold lysis buffer. MSD plates are supplied pre-coated with capture antibodies for Phospho-Akt (Ser473 and Thr308). After blocking, lysates from tissue culture plates were added and plates were washed. Then, a solution containing the detection antibody (anti-total Akt conjugated with an electrochemiluminescent compound-MSD Sulfo-tag label) was added. The signals were detected using an MSD SECTOR Imager 6000 and are proportional to the phospho-Akt titres.
(§7) Data were processed. The percentage of inhibition was plotted against the log concentration of test compounds, and the sigmoidal log concentration-effect curve of best fit was calculated by nonlinear regression analysis. From these concentration-response curves, the IC50 values were calculated. Five concentrations were used for curve fitting.

[7] = system: Akt phosphorylated at Thr308 in PC-3 cells; assay: Cellular assay: phosphorylation of Akt (Thr308) in PC-3 cells, MSD ELISA; format: cell-based; settings: Homo sapiens, 1 h, 60 min incubation with compound, read-out: IC50 pAkt_Thr308
Protocol: as §3, §4, §5, §6, §7

T2 sequence (P42336 whole entry): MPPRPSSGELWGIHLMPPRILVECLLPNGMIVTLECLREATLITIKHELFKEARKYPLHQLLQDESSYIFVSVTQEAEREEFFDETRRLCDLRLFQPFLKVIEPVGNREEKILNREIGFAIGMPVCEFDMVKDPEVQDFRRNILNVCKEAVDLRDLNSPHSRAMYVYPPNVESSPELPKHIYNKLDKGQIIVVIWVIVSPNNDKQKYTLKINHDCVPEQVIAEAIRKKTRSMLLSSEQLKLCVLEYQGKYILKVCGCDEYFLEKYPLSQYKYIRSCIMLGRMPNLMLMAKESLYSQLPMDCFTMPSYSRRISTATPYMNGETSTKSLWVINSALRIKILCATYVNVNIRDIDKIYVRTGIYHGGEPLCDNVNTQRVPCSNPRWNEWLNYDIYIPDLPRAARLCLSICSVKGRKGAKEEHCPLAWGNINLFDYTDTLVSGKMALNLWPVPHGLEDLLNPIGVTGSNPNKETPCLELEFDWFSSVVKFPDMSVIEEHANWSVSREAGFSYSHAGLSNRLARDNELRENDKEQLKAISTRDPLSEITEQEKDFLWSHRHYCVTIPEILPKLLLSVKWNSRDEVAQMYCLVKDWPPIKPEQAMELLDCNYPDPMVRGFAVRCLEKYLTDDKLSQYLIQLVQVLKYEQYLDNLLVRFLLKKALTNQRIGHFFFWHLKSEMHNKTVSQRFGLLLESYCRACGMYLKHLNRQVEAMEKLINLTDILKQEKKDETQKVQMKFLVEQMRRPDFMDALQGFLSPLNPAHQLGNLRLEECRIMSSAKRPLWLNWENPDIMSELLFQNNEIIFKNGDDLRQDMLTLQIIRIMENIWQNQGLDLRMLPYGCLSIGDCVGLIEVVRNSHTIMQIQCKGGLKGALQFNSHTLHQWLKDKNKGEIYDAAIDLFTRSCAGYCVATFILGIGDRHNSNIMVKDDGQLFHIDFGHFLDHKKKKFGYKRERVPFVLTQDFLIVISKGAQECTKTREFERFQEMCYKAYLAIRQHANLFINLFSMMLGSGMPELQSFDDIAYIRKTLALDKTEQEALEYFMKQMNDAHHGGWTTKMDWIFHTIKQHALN
T4 sequence (P48736 whole entry): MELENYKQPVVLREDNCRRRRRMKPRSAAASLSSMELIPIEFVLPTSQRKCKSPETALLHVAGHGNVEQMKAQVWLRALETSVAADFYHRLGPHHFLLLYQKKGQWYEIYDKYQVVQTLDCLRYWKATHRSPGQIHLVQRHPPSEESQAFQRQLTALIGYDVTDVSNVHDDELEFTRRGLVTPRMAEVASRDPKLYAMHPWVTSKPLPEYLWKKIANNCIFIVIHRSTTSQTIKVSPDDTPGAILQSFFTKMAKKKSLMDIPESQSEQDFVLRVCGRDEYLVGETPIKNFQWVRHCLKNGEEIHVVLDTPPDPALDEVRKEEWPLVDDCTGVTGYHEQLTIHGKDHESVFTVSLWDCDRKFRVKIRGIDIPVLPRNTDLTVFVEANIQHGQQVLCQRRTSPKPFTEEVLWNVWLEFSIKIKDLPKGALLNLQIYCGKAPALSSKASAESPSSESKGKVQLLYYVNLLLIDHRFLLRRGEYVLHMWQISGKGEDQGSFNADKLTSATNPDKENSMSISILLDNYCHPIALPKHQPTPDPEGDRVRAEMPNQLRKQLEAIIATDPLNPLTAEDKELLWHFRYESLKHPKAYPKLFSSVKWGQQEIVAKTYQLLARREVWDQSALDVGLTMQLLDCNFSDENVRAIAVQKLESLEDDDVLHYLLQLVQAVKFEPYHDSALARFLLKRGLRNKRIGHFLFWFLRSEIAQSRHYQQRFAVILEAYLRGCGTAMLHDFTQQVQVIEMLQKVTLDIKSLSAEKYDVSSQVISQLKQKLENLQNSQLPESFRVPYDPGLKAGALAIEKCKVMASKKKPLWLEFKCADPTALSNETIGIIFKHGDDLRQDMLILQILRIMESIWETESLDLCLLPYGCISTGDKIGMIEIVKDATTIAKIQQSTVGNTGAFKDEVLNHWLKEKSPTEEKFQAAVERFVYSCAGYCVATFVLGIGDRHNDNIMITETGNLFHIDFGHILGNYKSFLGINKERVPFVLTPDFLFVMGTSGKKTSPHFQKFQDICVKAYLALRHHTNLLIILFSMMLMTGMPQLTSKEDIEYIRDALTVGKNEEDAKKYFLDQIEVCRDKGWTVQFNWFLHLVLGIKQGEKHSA
T3 sequence (P42338 whole entry): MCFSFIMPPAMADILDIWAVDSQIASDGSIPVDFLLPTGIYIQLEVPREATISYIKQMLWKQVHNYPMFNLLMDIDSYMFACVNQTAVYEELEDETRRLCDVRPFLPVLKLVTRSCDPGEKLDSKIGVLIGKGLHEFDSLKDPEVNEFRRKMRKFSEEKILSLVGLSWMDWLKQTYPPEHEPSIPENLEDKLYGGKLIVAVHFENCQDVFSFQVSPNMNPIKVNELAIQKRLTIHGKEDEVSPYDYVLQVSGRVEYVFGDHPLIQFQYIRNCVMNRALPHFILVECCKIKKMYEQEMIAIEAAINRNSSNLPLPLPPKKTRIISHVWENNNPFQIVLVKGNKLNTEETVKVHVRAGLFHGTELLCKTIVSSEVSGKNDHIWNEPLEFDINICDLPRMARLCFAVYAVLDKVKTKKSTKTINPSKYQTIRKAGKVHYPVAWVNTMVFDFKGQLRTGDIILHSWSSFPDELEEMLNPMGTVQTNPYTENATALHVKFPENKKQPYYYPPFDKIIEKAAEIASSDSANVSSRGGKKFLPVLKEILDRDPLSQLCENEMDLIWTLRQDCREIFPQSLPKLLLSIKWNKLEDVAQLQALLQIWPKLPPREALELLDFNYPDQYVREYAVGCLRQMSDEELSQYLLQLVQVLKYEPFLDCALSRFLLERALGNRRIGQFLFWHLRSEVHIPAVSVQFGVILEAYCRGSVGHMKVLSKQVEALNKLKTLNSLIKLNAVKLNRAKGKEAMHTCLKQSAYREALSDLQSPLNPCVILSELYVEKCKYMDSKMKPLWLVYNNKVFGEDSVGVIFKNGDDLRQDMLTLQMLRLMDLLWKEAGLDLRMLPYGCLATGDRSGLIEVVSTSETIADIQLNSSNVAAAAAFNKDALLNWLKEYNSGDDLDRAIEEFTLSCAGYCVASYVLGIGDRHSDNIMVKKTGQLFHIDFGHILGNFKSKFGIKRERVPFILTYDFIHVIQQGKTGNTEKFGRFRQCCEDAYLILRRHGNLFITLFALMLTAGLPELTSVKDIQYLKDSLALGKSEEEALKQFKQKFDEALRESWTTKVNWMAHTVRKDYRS

Structure (SMILES) | Kd [1] | Kd [2] | Kd [3] | Kd [4] | Kd [5] | IC50 [6] | IC50 [7]
Cc1c(Cc2c(CN3CC(O)C3)nc3c(N)cc(N4CCOCC4)nn23)cccc1C(F)(F)F [Compound 3] | 11000 nM | 11500 nM | 1.7 nM | 16200 nM | 191 nM | ~89 nM | 66 nM
Cc1c(Cc2c(CN3CCC(CS(C)(=O)=O)CC3)nc3c(N)cc(N4CCOCC4)nn23)cccc1C(F)(F)F [Compound 5] | > 30200 nM | 12000 nM | 3.6 nM | > 30200 nM | 219 nM | ~132 nM | 71 nM
Cc1c(Cc2c(CN3CC4(C3)CS(=O)(=O)C4)nc3c(N)cc(N4CCOCC4)nn23)cccc1C(F)(F)F [Compound 7] | 11400 nM | 436 nM | 0.5 nM | 27600 nM | 8 nM | 4 nM | 3 nM
Cc1c(Cc2c(CN3CC(C)NC(C)C3)nc3c(N)cc(N4CCOCC4)nn23)cccc1C(F)(F)F (stereo not shown) [Compound 10] | 5750 nM | 4790 nM | 0.6 nM | > 30200 nM | 52 nM | ~42 nM | ~48 nM
Cc1c(Cc2c(CN3CCCC4(CNC4)C3)nc3c(N)cc(N4CCOCC4)nn23)cccc1C(F)(F)F [Compound 12] | 11000 nM | 18600 nM | 1.7 nM | 8510 nM | 89 nM | 85 nM | ~87 nM
Cc1c(Cc2c(CN3CC4(CCCNC4)C3)nc3c(N)cc(N4CCOCC4)nn23)cccc1C(F)(F)F [Compound 13] | 3550 nM | 1380 nM | 0.2 nM | 977 nM | 7 nM | 28 nM | 44 nM
Cc1c(Cc2c(CN3CCC(N)CC3)nc3c(N)cc(N4CCOCC4)nn23)cccc1C(F)(F)F [Compound 14] | 13800 nM | 7410 nM | 0.3 nM | 4900 nM | 40 nM | 68 nM | 69 nM
Cc1c(Cc2c(CN3CCCC(CO)C3)nc3c(-c4cnc[nH]4)cc(N4CCOCC4)nn23)cccc1C(F)(F)F (stereo not shown) [Compound 15] | 7760 nM | 537 nM | 1.4 nM | 2190 nM | 22 nM | 30 nM | ~41 nM
Cc1c(Cc2c(CN3CC(C)NC(C)C3)nc3c(-c4cnc[nH]4)cc(N4CCOCC4)nn23)cccc1C(F)(F)F (stereo not shown) [Compound 16] | 2000 nM | 453 nM | 0.7 nM | 5700 nM | 17 nM | 38 nM | 28 nM
Cc1c(Cc2c(CN3CC(C)NC(C)C3)nc3c(-c4ncc[nH]4)cc(N4CCOCC4)nn23)cccc1C(F)(F)F (stereo not shown) [Compound 18] | 6070 nM | 475 nM | 0.8 nM | 3890 nM | 14 nM | 95 nM | 51 nM
Cc1c(Nc2c(CN3CC(C)NC(C)C3)nc3c(C(N)=O)cc(N4CCOCC4)nn23)cccc1C(F)(F)F (stereo not shown) [Compound 21] | 20000 nM | 1290 nM | 1.1 nM | 4170 nM | 129 nM | 107 nM | ~69 nM
Cc1c(Cc2c(CN3CC4(CC(O)C4)C3)nc3c(-c4cnc[nH]4)cc(N4CCOCC4)nn23)cccc1C(F)(F)F [Compound 27] | 1550 nM | 240 nM | 0.4 nM | 589 nM | 10 nM | 62 nM | 43 nM
Cc1c(Cc2c(CN3CC4(C3)CS(=O)(=O)C4)nc3c(C(=O)O)cc(N4CCOCC4)nn23)cccc1C(F)(F)F [Compound 28] | 21400 nM | 372 nM | 0.2 nM | 15100 nM | 13 nM | > 513 nM | > 513 nM
Cc1c(Cc2c(CN3CC4(CC(O)C4)C3)nc3c(C(=O)O)cc(N4CCOCC4)nn23)cccc1C(F)(F)F [Compound 29] | > 30200 nM | 6310 nM | 0.7 nM | 28200 nM | 112 nM | > 513 nM | > 513 nM
[2H]C1([2H])OC([2H])([2H])C([2H])([2H])N(c2cc(N)c3nc(CN4CC5(C4)CS(=O)(=O)C5)c(Cc4cccc(C(F)(F)F)c4C)n3n2)C1([2H])[2H] [Compound 30] | 8130 nM | 617 nM | 0.3 nM | 20000 nM | 12 nM | 4 nM | 4 nM
Cc1c(Cc2c(CN3CCCC34CCS(=O)(=O)C4)nc3c(N)cc(N4CCOCC4)nn23)cccc1C(F)(F)F (stereo not shown) [Compound 31] | > 30200 nM | > 30200 nM | 4.8 nM | > 30200 nM | 479 nM | 117 nM | 66 nM
